Test results: the supplement of paper PMC6045584
± gives the standard deviation of the averaged measurements.

Key:
TEMOZOLOMIDE = compound: Cn1nnc2c(C(N)=O)ncn2c1=O [TEMOZOLOMIDE]; assay: surviving fraction relative to DMSO-only wells; higher = less growth inhibition; details: exposure time: 5 days
Summary of the method: (§1)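 Five days of continuous inhibitor exposure, at 0.5, 1, 5, 10, 50, 100, 500 and 1000 nM, followed a 24-hour period after log-phase tumour cell lines were seeded at 250–500 cells per well in 384-well plates. Surviving fraction was derived from CellTiter-Glo luminescence relative to the median of DMSO-only wells. Plates were read after 10 minutes at room temperature, and lines screened three times were kept only if replicate Pearson r >0.7 and median Z' >0.3.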

XAV-939 = compound: Oc1nc(-c2ccc(C(F)(F)F)cc2)nc2c1CSCC2 [XAV-939]; assay: as above; details: exposure time: 5 days
Summary of the method: as §1

Test System	surviving fraction (TEMOZOLOMIDE; 0.5 nM)	surviving fraction (TEMOZOLOMIDE; 1 nM)	surviving fraction (TEMOZOLOMIDE; 5 nM)	surviving fraction (TEMOZOLOMIDE; 10 nM)	surviving fraction (TEMOZOLOMIDE; 50 nM)	surviving fraction (TEMOZOLOMIDE; 100 nM)	surviving fraction (TEMOZOLOMIDE; 500 nM)	surviving fraction (TEMOZOLOMIDE; 1000 nM)	surviving fraction (XAV-939; 0.5 nM)	surviving fraction (XAV-939; 1 nM)	surviving fraction (XAV-939; 5 nM)	surviving fraction (XAV-939; 10 nM)	surviving fraction (XAV-939; 50 nM)	surviving fraction (XAV-939; 100 nM)	surviving fraction (XAV-939; 500 nM)	surviving fraction (XAV-939; 1000 nM)
SUM149 BREAST	1.06 ± 0.11	1.1 ± 0.067	1.1 ± 0.029	1.1 ± 0.12	1.01 ± 0.056	1.16 ± 0.12	1.1 ± 0.096	1.03 ± 0.022	1.02 ± 0.094	0.987 ± 0.05	0.971 ± 0.067	0.942 ± 0.034	0.854 ± 0.095	0.691 ± 0.037	0.432 ± 0.0091	0.328 ± 0.022
SUM149.B1*.S BREAST	1 ± 0.026	1.05 ± 0.023	1.08 ± 0.062	1.11 ± 0.038	1.07 ± 0.067	1.13 ± 0.073	1.07 ± 0.023	1.15 ± 0.085	0.968 ± 0.033	1.07 ± 0.059	1.04 ± 0.047	1.06 ± 0.082	0.996 ± 0.045	1.06 ± 0.033	1.01 ± 0.03	1 ± 0.026
SUM159 BREAST	1.01 ± 0.057	1.06 ± 0.035	1.039 ± 0.0092	1.07 ± 0.024	1.02 ± 0.021	1.05 ± 0.021	1.04 ± 0.029	1.06 ± 0.0095	1.17 ± 0.32	1.15 ± 0.19	1.14 ± 0.21	1.16 ± 0.22	1.12 ± 0.2	1.13 ± 0.18	1.09 ± 0.16	1.08 ± 0.11
SYO1 SYNOVIAL	0.971 ± 0.041	1.04 ± 0.064	0.965 ± 0.0099	1.01 ± 0.048	0.986 ± 0.059	1.01 ± 0.048	0.99733 ± 0.00067	1.03 ± 0.016	0.954 ± 0.039	0.998 ± 0.062	0.984 ± 0.028	0.997 ± 0.047	0.973 ± 0.059	0.879 ± 0.024	0.708 ± 0.044	0.568 ± 0.0066
T47D BREAST	0.982 ± 0.011	1.057 ± 0.0064	1.04 ± 0.034	1.04 ± 0.055	1.06 ± 0.053	1.1 ± 0.018	1.08 ± 0.032	1.09 ± 0.025	1.04 ± 0.074	1.08 ± 0.045	1.07 ± 0.02	1.09 ± 0.014	1.09 ± 0.044	1.13 ± 0.053	1.04 ± 0.052	1.05 ± 0.042
U2OS BONE	0.988 ± 0.017	0.988 ± 0.034	1.04 ± 0.022	1.02 ± 0.045	1.06 ± 0.029	1.06 ± 0.023	1.02 ± 0.028	1.01 ± 0.023	1.02 ± 0.028	1.04 ± 0.012	1.07 ± 0.032	1.06 ± 0.038	1.06 ± 0.014	1.04 ± 0.018	0.921 ± 0.02	0.8627 ± 0.0081
VCAP PROSTATE	0.913 ± 0.1	1.09 ± 0.089	1.04 ± 0.13	1.04 ± 0.082	0.967 ± 0.051	1.1 ± 0.09	0.991 ± 0.039	1.08 ± 0.093	0.963 ± 0.12	0.958 ± 0.077	1.08 ± 0.092	0.973 ± 0.089	0.957 ± 0.083	0.903 ± 0.088	0.848 ± 0.13	0.84 ± 0.024
VP229 BREAST	1.18 ± 0.11	1.18 ± 0.15	1.07 ± 0.17	1.23 ± 0.06	1.12 ± 0.073	1.26 ± 0.21	1.15 ± 0.15	1.15 ± 0.16	1.3 ± 0.093	1.34 ± 0.056	1.37 ± 0.14	1.23 ± 0.045	1.3 ± 0.075	1.41 ± 0.22	1.33 ± 0.26	1.3 ± 0.075
YAMATO SYNOVIAL	1.14 ± 0.05	1.16 ± 0.055	1.27 ± 0.13	1.35 ± 0.076	1.22 ± 0.083	1.4 ± 0.1	1.31 ± 0.12	1.38 ± 0.095	1.28 ± 0.22	1.22 ± 0.057	1.26 ± 0.095	1.34 ± 0.18	1.3 ± 0.049	1.24 ± 0.053	1 ± 0.095	1.09 ± 0.037
ZR751 BREAST	0.95 ± 0.12	0.953 ± 0.032	0.981 ± 0.034	0.964 ± 0.09	0.987 ± 0.15	1.04 ± 0.11	0.918 ± 0.11	1.05 ± 0.06	0.873 ± 0.048	0.925 ± 0.18	0.869 ± 0.092	0.987 ± 0.03	0.683 ± 0.082	0.762 ± 0.15	0.69 ± 0.052	0.685 ± 0.036
